Converted amounts (≈) assume the structure as drawn.
Assays:
[1] = Equilibrium solubility in aqueous buffer; assay type: physicochemical; conditions: thermodynamic from solid, NaOAc/AcOH buffer (100 mM, pH 5.0), shaken at rt for 24 h, HPLC UV
Procedure: The equilibrium solubility of compounds was measured in aqueous buffer. Excess amount of solid compound was added into buffer solution and the sample was briefly sonicated and then shaken at rt for 24 h. The sample was filtered and the concentration was analyzed by HPLC UV. A standard solution at 0.2 mg/mL was prepared in methanol or acetonitrile for each compound and used as an external standard for quantification.

A549 cells = assay: Inhibition of cell growth in tumor cells (MTT assay); assay type: cell-based; conditions: Homo sapiens, 72 h compound exposure
Procedure: Inhibition of cell growth by compounds was measured using MTT assay (Mosmann, T., Journal of Immunological Methods, 1983, 65, 55-63). Tumor cell lines were purchased from ATCC (American Type Culture Collection, Manassas, Va.). All cell lines were maintained in RPMI 1640 (Hyclone) supplemented with 10% fetal bovine serum (FBS, Hyclone), glutamine (2 mM, Hyclone), and antibiotics (penicillin 100 U/mL and streptomycin 50 µg/mL) at 37° C. in a humidified atmosphere of 5% CO2 in air. Taxol (positive control, Sigma) and compounds were dissolved in DMSO (Sigma), and the final concentration of DMSO in the medium was 1%. Tumor cells were plated in 96-well plates at densities from 4000 cells/well of a 96-well plate and allowed to adhere/grow for 24 h. They were then treated with various concentrations of drug for 72 h. 3-(4,5-Dimethylthiazol-2-yl)-2,5-diphenyltetrazolium bromide (MTT, Sigma) was used to determine the number of viable cells at the time of compound addition and the number of cells remaining after 72 h compound exposure. The number of cells remaining after 72 h was compared to the number of viable cells at the time of compound addition by measuring the absorbance at 570 nm, allowing for the calculation of growth inhibition.
All concentrations of compounds were tested in triplicate and controls were averaged over 4 wells. IC50 was calculated by plotting the concentration of compound vs the percentage of inhibition in treated wells using GraphPad Prism 5.

Row | solubility at 24 h ([1]; aqueous buffer (NaOAc/AcOH)) [µg/mL] | Structure (SMILES) | solubility at 24 h [1] [µg/mL] | IC50 (A549 cells) [µM]
1 | – | COc1ccc(/C=C/C(=O)CC(=O)/C=C/c2ccc(OC(=O)N3CCN(C)CC3)c(OC)c2)cc1OC [4-((1E,6E)-7-(3,4-dimethoxyphenyl)-3,5-dioxohepta-1,6-dien-1-yl)-2-methoxyphenyl 4-methylpiperazine-1-carboxylate] | 320 (≈ 629 µM) | 4.3
2 | – | COc1ccc(/C=C/C(=O)CC(=O)/C=C/c2ccc(OC(=O)N(C)C)c(OC)c2)cc1OC [4-((1E,6E)-7-(3,4-dimethoxyphenyl)-3,5-dioxohepta-1,6-dien-1-yl)-2-methoxyphenyl dimethylcarbamate] | – | 10.6
3 | – | COc1ccc(/C=C/C(=O)CC(=O)/C=C/c2ccc(OC(=O)N3CCOCC3)c(OC)c2)cc1OC [4-((1E,6E)-7-(3,4-dimethoxyphenyl)-3,5-dioxohepta-1,6-dien-1-yl)-2-methoxyphenyl morpholine-4-carboxylate] | – | 4.6
4 | – | COc1cc(/C=C/C(=O)CC(=O)/C=C/c2ccc(OC(=O)N(C)C)c(OC)c2)ccc1OCCO [4-((1E,6E)-7-(4-(2-hydroxyethoxy)-3-methoxyphenyl)-3,5-dioxohepta-1,6-dien-1-yl)-2-methoxyphenyl dimethylcarbamate] | – | 9.1
5 | – | COc1cc(/C=C/C(=O)CC(=O)/C=C/c2ccc(OC(=O)N3CCCCC3)c(OC)c2)ccc1OCCO [4-((1E,6E)-7-(4-(2-hydroxyethoxy)-3-methoxyphenyl)-3,5-dioxohepta-1,6-dien-1-yl)-2-methoxyphenyl piperidine-1-carboxylate] | – | 10.9
6 | – | COc1cc(/C=C/C(=O)CC(=O)/C=C/c2ccc(OC(=O)N3CCN(C)CC3)c(OC)c2)ccc1O [4-((1E,6E)-7-(4-hydroxy-3-methoxyphenyl)-3,5-dioxohepta-1,6-dien-1-yl)-2-methoxyphenyl 4-methylpiperazine-1-carboxylate] | 18 (≈ 36.4 µM) | 3.8
7 | – | COc1cc(/C=C/C(=O)CC(=O)/C=C/c2ccc(OC(=O)N(C)C)c(OC)c2)ccc1O [4-((1E,6E)-7-(4-hydroxy-3-methoxyphenyl)-3,5-dioxohepta-1,6-dien-1-yl)-2-methoxyphenyl dimethylcarbamate] | – | 2.3
8 | – | COc1cc(/C=C/C(=O)CC(=O)/C=C/c2ccc(OC(=O)N3CCOCC3)c(OC)c2)ccc1O [4-((1E,6E)-7-(4-hydroxy-3-methoxyphenyl)-3,5-dioxohepta-1,6-dien-1-yl)-2-methoxyphenyl morpholine-4-carboxylate] | – | 7.2
9 | – | COc1cc(/C=C/C(=O)CC(=O)/C=C/c2ccc(OC(=O)N3CCNCC3)c(OC)c2)ccc1O [4-((1E,6E)-7-(4-hydroxy-3-methoxyphenyl)-3,5-dioxohepta-1,6-dien-1-yl)-2-methoxyphenyl piperazine-1-carboxylate] | 1390 (≈ 2890 µM) | 9.2
10 | – | COc1cc(/C=C/C(=O)CC(=O)/C=C/c2ccc(OC(=O)N3CCCCC3)c(OC)c2)ccc1O [4-((1E,6E)-7-(4-hydroxy-3-methoxyphenyl)-3,5-dioxohepta-1,6-dien-1-yl)-2-methoxyphenyl piperidine-1-carboxylate] | – | 8
11 | < 1 | COc1cc(/C=C/C(=O)CC(=O)/C=C/c2ccc(O)c(OC)c2)ccc1O [Curcumin, reference compound] | – | > 30
